Measurements taken from PMC11823381, “Identification of novel inhibitors of dengue viral NS5 RNA-dependent RNA polymerase through molecular docking, biological activity evaluation and molecular dynamics simulations” (Journal of Enzyme Inhibition and Medicinal Chemistry, 2025).
“And” between values parts separate entries of the source, which are not always exact repeats. Equal values may be shown once. Read-outs that look alike come from different tables or passages of the source.

How the values were obtained:
[1] = Cytotoxicity (CC50) in the cell-based assay; details: hamster, BHK-21 cells
Procedure: (§1) In this study, the DENV2 NGC strain (provided by Robert B. Tesh, University of Texas Medical Branch) and BHK-21 cells (Baby hamster kidney cells, ATCC CCL10) were used for cell-based antiviral evaluations. Viral stocks were prepared by infecting C6/36 cells (Aedes albopictus clone C6/36; ATCC CRL166), cultured in RPMI 1640 medium (Invitrogen, Burlington, ON, Canada) containing 2% foetal bovine serum (FBS) (Sigma-Aldrich, Shanghai, China) and 0.5% penicillin-streptomycin. The infected cultures were incubated at 28 °C with 5% CO2 for seven days until cytopathic effects (CPE) were detected. Supernatants were collected by centrifuging at 2,000 g for 5 min to remove debris, mixed with 20% FBS, and stored in aliquots at −80 °C. Viral titres were quantified using the Promega Viral ToxGlo assay (Fisher Scientific, Ottawa, ON, Canada) on BHK-21 cells, and the 50% tissue culture infective dose (TCID50) was determined following the manufacturer’s instructions. To test antiviral activity, BHK-21 cells were seeded in 96-well plates at 2,500 cells per well using Dulbecco’s modified Eagle’s medium (DMEM) with 10% FBS and 1% penicillin-streptomycin. After overnight incubation at 37 °C, cells were exposed to 100 TCID50 of DENV for 90 min. Following infection, the medium was replaced with DMEM supplemented with 2.5% FBS and different concentrations of the test compounds. Cultures were maintained at 37 °C with 5% CO2 for 3 days. Fresh Viral Tox reagent was prepared, and 100 μL was added to each well before incubating the plates for at least 10 min. Luminescence readings were taken using a 1450 MicroBeta TriLux scintillation counter (PerkinElmer). Data were analysed by plotting luminescence values against logarithmic compound concentrations, and nonlinear regression was carried out using GraphPad Prism 10.0 software.

DENV2 NGC strain = experiment: Cell-based antiviral assay (Viral ToxGlo, CPE) against DENV-NGC; set-up: species or system dengue virus (DENV2); details: for IC50: mean ± SD of two individual experiments; for SI (selectivity index): ratio of CC50 to IC50
Procedure: as §1

[2] = Dengue virus, DENV2, BHK-21, 72 h, BHK-21 cells, 100 TCID50 of DENV, 3 days, read-out: DENV-NGC-IC50
[3] = Dengue virus, DENV2, BHK-21, 72 h, read-out: DENV-NGC-IC50, BHK-21 cells, 100 TCID50 of DENV, 3 days
[4] = BHK-21 cells, 100 TCID50 of DENV, 3 days, read-out: DENV-NGC-IC50

O=C1C[C@@H](NCCc2c[nH]c3ccccc23)C(=O)N1c1ccc(Oc2ccccc2)cc1 [Compound D12]
CC50 at 3 days [1]: 163 ± 14.1 µM
IC50 (DENV2 NGC strain; [2]): 47.3 ± 11.8 µM
SI (selectivity index) (DENV2 NGC strain): 3.45

Cc1ccc(NC(=O)[C@@H]2[C@H]3C(=O)N(C[C@@H]4CCCO4)[C@H](C(=O)NC4CCCCC4)[C@]34C=C[C@H]2O4)cc1 [Compound D10]
IC50 (DENV2 NGC strain; [2]): > 200 µM

Nc1ncnc2c([C@@H]3N[C@H](CO)[C@@H](O)[C@H]3O)c[nH]c12 [BCX4430, Galidesivir, reference compound]
CC50 at 3 days [1]: 100 ± 12.5 µM
IC50 (DENV2 NGC strain; [2]): 41.6 ± 2.95 µM
SI (selectivity index) (DENV2 NGC strain): 2.40

O=C(Nc1ccc(F)cc1F)N1CCC[C@@H]1c1nc2cc(-c3ccccc3F)ccc2o1 [Compound D8]
CC50 at 3 days [1]: 99.2 ± 1.93 µM
IC50 (DENV2 NGC strain; [2]): 14.8 ± 7.76 µM
SI (selectivity index) (DENV2 NGC strain): 6.71

O=C(CCSc1nc(-c2ccc3c(c2)OCO3)cc(C(F)(F)F)n1)NCCN1CCOCC1 [Compound D4]
IC50 (DENV2 NGC strain; [2]): > 200 µM

CCCC[C@@](CCC(=O)O)(C(=O)OCC)c1csc(Nc2ccc(C)cc2)n1 [Compound D3]
IC50 (DENV2 NGC strain; [2]): > 66.7 µM

O=C(Cn1c(=O)sc2ccccc21)Nc1nnc(SCC(=O)N2CCOCC2)s1 [Compound D7]
IC50 (DENV2 NGC strain; [2]): > 200 µM

CC(=O)Nc1ccc(S(=O)(=O)N[C@]2(C(F)(F)F)NC(=O)N(c3ccc(Cl)cc3)C2=O)cc1 [Compound D9]
IC50 (DENV2 NGC strain; [2]): > 200 µM

O=C([C@@H]1C[C@H](Oc2ccccc2)CN1C(=O)CCc1nc2ccccc2s1)N1CCCC1 [Compound D24]
CC50 at 3 days [1]: > 200 µM
IC50 (DENV2 NGC strain; [3]): > 66.7 µM

NC(=O)COc1ccc([C@@H]2CC(=O)Nc3nc(SCc4ccc(Cl)cc4)[nH]c(=O)c32)cc1 [Compound D14]
CC50 at 3 days [1]: > 200 µM
IC50 (DENV2 NGC strain; [4]): 31.2 µM and > 200 µM

COc1cccc(S(=O)(=O)NC(=O)c2cc(-c3ccc(C#CCO)s3)c(OC)cc2OC)c1 [Compound 27, reference compound]
CC50 at 3 days [1]: 26.9 ± 3.02 µM
IC50 (DENV2 NGC strain; [2]): 19.7 ± 1.12 µM
SI (selectivity index) (DENV2 NGC strain): 1.37

CN(c1ccccc1)c1nc(=O)n(CC(=O)Nc2ccc(Br)cc2)c2ccccc12 [Compound D21]
IC50 (DENV2 NGC strain; [2]): > 200 µM

O=C(O)[C@H](NC(=O)[C@@H]1CC=CC[C@H]1C(=O)c1ccccc1)c1ccccc1 [Compound D26]
IC50 (DENV2 NGC strain; [2]): > 200 µM

NC(=O)C1CCN(C(=O)CCCSc2nc(-c3ccco3)cc(C(F)(F)F)n2)CC1 [Compound D6]
IC50 (DENV2 NGC strain; [2]): > 200 µM

CN(Cc1ccccc1)C(=O)c1snc2c(=O)n(Cc3ccccc3)c(=O)[nH]c12 [Compound D1]
CC50 at 3 days [1]: 37.5 ± 2.03 µM
IC50 (DENV2 NGC strain; [2]): 13.1 ± 1.17 µM
SI (selectivity index) (DENV2 NGC strain): 2.87

N#Cc1ccc(C(=O)N2CCC[C@H]2c2nc(CCOCC3CC3)no2)cc1 [Compound D23]
CC50 at 3 days [1]: > 200 µM
IC50 (DENV2 NGC strain; [4]): > 200 µM
IC50 (DENV2 NGC strain; [2]): 123 µM

O=C(Cn1c(=O)sc2ccccc21)Nc1nnc(SCc2ccccc2)s1 [Compound D5]
CC50 at 3 days [1]: > 200 µM
IC50 (DENV2 NGC strain; [4]): 28.5 µM and > 66.7 µM

O=C(O)CCCNC(=O)Cn1nc2c(cc1=O)CCCCC2 [Compound D18]
IC50 (DENV2 NGC strain; [2]): > 200 µM

C[C@@H](Sc1nnc2c3ccccc3nc(-c3ccccc3)n12)C(=O)NC[C@H]1CCCO1 [Compound D17]
CC50 at 3 days [1]: 53 ± 10.5 µM
IC50 (DENV2 NGC strain; [2]): 22.2 ± 7.25 µM
SI (selectivity index) (DENV2 NGC strain): 2.38

O=C(COc1ccccc1)Nc1nnc(SCc2cc(=O)n3cc(Cl)ccc3n2)s1 [Compound D16]
IC50 (DENV2 NGC strain; [2]): > 200 µM

CCOc1c(Nc2ccc(C#N)cc2)c(=O)c1=O [Compound D15]
IC50 (DENV2 NGC strain; [2]): > 200 µM

Cc1[nH]c2ccccc2c1C(=O)C(=O)NC[C@@H]1COc2ccccc2O1 [Compound D11]
CC50 at 3 days [1]: 87.3 ± 2.75 µM
IC50 (DENV2 NGC strain; [3]): > 66.7 µM

O=c1c2ccccc2[nH]c(=S)n1C[C@H]1CC[C@H](C(=O)NC[C@@H]2COc3ccccc3O2)CC1 [Compound D19]
IC50 (DENV2 NGC strain; [2]): > 200 µM
